From ChEMBL document CHEMBL1250444, “Nitric oxide activates TRP channels by cysteine S-nitrosylation” (Nat Chem Biol, 2006)
Activity calls are given as the source filed them. The rule behind the calls is not given here.

How the values were obtained:
[1] = target: T1, Short transient receptor potential channel 5 (Homo sapiens) (UniProt Q9UL62); experiment: Activation of TRPC5 expressed in BAEC expressing dominant negative mutant of TRPC5 assessed as increase in Ca2+ level from extracellular space at 300 uM
T1 sequence (whole entry): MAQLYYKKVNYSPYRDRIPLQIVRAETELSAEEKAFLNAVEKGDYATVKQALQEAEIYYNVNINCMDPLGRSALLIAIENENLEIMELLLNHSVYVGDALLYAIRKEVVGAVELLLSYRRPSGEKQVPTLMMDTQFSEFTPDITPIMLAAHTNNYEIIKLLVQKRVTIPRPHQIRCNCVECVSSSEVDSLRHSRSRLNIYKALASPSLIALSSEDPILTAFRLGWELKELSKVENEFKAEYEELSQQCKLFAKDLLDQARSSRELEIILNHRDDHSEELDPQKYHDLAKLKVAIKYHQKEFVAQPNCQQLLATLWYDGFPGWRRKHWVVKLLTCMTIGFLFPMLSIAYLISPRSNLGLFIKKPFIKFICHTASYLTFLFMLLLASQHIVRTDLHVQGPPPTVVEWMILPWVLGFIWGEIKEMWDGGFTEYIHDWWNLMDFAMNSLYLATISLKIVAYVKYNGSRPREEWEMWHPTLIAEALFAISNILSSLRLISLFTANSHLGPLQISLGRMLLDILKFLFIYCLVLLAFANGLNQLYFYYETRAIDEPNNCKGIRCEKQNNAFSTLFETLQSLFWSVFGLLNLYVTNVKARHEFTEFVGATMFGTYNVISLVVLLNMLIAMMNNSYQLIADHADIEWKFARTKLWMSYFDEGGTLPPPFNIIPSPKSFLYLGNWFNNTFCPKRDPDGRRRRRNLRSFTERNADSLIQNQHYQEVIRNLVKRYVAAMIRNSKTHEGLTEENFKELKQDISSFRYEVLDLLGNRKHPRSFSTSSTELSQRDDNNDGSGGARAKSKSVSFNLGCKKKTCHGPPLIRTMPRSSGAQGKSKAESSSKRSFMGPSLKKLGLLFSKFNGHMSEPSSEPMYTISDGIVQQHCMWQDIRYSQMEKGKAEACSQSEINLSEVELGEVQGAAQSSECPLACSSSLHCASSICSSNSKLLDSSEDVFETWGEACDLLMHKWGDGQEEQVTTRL

[2] = target: T1, Short transient receptor potential channel 5 (Homo sapiens); experiment: Induction of S-nitrosylation of TRPC5 in HEK cells assessed as inhibition of incorporation of DTNB-2Bio at 300 uM; format: cell-based; conditions: HEK293
[3] = target: Transient receptor potential cation channel subfamily V member 1 (Rattus norvegicus) (UniProt O35433); experiment: Activation of rat TRPV1 expressed in HEK cells assessed as increase in Ca2+ level from extracellular space at 300 uM; format: cell-based; conditions: HEK293
Sequence of Transient receptor potential cation channel subfamily V member 1 (Rattus norvegicus) (O35433 whole entry): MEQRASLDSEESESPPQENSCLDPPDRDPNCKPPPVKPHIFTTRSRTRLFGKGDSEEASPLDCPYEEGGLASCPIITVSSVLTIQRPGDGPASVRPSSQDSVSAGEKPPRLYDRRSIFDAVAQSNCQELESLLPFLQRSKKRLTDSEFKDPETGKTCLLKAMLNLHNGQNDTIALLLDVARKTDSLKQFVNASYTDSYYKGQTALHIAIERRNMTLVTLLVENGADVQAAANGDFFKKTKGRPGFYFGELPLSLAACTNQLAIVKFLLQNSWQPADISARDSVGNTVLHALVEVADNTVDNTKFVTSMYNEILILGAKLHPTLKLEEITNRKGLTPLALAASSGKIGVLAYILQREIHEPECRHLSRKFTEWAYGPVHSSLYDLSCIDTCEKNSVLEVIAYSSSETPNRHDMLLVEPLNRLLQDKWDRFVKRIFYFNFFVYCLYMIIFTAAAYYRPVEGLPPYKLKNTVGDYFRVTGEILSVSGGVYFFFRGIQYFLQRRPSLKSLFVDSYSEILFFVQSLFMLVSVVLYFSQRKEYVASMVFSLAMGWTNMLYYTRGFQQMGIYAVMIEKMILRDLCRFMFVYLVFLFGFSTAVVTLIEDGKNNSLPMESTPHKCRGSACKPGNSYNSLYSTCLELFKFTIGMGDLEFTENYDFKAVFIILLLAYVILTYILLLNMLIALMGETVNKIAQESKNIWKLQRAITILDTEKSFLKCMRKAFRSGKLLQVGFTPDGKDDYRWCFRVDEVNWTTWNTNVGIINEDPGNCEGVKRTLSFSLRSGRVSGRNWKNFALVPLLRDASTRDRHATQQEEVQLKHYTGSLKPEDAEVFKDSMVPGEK

[4] = target: T2, Transient receptor potential cation channel subfamily V member 3 (Homo sapiens) (UniProt Q8NET8); experiment: Activation of TRPV3 in HEK cells assessed as increase in Ca2+ level from extracellular space at 300 uM; format: cell-based; conditions: HEK293
T2 sequence (whole entry): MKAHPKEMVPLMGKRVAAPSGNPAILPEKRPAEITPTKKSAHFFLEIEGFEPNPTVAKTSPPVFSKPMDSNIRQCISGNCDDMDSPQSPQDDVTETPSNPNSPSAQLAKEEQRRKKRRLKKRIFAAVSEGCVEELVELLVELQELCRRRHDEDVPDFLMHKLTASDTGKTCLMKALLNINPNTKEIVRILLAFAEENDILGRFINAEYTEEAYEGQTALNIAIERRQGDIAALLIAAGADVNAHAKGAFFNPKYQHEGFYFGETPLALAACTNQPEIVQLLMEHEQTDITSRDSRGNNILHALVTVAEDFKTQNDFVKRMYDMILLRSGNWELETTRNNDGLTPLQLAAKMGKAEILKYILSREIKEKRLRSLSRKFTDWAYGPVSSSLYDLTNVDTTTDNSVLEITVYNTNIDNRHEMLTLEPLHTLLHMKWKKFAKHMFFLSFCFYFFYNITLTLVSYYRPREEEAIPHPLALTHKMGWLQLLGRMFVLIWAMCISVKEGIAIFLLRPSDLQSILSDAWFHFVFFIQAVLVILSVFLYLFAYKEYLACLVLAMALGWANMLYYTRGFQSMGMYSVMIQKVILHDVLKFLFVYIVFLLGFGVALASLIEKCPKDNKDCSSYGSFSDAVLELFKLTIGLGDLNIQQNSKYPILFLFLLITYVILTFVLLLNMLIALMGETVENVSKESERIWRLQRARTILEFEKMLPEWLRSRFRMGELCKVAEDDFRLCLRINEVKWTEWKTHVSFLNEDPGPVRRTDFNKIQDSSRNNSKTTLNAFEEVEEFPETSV

[5] = target: T2, Transient receptor potential cation channel subfamily V member 3 (Homo sapiens); experiment: Activation of TRPV3 in HEK cells assessed as increase in Ca2+ level from extracellular space at 10 uM; format: cell-based; conditions: HEK293
[6] = target: Transient receptor potential cation channel subfamily M member 2 (Homo sapiens) (UniProt O94759); experiment: Induction of TRPM2 S-nitrosylation in HEK cells assessed as increase in Ca2+ level from extracellular space at 30 uM; format: cell-based; conditions: HEK293
Sequence of Transient receptor potential cation channel subfamily M member 2 (Homo sapiens) (O94759 whole entry): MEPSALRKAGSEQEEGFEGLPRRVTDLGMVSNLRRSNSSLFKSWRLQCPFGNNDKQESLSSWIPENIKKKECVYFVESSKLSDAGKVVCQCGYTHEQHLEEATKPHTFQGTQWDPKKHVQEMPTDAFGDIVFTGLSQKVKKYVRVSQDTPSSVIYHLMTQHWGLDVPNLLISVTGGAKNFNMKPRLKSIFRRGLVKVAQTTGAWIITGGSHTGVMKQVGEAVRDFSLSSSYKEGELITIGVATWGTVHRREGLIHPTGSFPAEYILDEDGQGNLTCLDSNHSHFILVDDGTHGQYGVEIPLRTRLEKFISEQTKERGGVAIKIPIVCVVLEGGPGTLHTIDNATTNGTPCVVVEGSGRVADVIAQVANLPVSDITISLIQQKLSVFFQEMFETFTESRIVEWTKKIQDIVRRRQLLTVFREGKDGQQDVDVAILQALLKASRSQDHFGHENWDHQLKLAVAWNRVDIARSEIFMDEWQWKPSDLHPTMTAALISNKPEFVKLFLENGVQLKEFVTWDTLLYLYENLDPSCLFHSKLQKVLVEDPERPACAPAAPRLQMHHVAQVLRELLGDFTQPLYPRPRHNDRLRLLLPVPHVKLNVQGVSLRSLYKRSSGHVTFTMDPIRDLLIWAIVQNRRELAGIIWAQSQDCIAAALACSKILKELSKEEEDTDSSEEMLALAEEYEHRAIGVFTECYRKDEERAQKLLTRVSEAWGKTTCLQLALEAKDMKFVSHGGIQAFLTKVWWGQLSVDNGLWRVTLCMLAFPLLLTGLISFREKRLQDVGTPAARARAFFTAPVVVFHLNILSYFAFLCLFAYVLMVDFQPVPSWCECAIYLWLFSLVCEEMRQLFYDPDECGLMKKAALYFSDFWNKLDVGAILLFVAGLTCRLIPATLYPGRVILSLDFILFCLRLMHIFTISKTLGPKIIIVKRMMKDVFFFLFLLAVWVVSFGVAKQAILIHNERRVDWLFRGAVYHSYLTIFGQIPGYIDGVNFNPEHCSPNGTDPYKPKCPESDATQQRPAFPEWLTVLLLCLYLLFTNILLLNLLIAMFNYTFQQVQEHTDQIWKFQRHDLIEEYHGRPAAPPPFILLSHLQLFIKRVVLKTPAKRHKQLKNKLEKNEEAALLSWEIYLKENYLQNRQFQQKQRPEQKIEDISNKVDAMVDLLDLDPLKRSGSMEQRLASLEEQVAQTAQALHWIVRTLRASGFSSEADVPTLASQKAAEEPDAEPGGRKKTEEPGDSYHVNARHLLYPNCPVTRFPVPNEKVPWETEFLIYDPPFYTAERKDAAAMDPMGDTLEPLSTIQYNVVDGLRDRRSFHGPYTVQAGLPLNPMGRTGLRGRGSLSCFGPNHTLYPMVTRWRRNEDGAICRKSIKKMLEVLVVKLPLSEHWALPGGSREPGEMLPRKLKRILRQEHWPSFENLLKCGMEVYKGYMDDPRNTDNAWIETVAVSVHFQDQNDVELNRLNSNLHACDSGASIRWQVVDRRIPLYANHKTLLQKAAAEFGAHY

[7] = target: Transient receptor potential cation channel subfamily M member 7 (Homo sapiens) (UniProt Q96QT4); experiment: Induction of TRPM7 S-nitrosylation in HEK cells assessed as increase in Ca2+ level from extracellular space at 30 uM; format: cell-based; conditions: HEK293
Sequence of Transient receptor potential cation channel subfamily M member 7 (Homo sapiens) (Q96QT4 whole entry): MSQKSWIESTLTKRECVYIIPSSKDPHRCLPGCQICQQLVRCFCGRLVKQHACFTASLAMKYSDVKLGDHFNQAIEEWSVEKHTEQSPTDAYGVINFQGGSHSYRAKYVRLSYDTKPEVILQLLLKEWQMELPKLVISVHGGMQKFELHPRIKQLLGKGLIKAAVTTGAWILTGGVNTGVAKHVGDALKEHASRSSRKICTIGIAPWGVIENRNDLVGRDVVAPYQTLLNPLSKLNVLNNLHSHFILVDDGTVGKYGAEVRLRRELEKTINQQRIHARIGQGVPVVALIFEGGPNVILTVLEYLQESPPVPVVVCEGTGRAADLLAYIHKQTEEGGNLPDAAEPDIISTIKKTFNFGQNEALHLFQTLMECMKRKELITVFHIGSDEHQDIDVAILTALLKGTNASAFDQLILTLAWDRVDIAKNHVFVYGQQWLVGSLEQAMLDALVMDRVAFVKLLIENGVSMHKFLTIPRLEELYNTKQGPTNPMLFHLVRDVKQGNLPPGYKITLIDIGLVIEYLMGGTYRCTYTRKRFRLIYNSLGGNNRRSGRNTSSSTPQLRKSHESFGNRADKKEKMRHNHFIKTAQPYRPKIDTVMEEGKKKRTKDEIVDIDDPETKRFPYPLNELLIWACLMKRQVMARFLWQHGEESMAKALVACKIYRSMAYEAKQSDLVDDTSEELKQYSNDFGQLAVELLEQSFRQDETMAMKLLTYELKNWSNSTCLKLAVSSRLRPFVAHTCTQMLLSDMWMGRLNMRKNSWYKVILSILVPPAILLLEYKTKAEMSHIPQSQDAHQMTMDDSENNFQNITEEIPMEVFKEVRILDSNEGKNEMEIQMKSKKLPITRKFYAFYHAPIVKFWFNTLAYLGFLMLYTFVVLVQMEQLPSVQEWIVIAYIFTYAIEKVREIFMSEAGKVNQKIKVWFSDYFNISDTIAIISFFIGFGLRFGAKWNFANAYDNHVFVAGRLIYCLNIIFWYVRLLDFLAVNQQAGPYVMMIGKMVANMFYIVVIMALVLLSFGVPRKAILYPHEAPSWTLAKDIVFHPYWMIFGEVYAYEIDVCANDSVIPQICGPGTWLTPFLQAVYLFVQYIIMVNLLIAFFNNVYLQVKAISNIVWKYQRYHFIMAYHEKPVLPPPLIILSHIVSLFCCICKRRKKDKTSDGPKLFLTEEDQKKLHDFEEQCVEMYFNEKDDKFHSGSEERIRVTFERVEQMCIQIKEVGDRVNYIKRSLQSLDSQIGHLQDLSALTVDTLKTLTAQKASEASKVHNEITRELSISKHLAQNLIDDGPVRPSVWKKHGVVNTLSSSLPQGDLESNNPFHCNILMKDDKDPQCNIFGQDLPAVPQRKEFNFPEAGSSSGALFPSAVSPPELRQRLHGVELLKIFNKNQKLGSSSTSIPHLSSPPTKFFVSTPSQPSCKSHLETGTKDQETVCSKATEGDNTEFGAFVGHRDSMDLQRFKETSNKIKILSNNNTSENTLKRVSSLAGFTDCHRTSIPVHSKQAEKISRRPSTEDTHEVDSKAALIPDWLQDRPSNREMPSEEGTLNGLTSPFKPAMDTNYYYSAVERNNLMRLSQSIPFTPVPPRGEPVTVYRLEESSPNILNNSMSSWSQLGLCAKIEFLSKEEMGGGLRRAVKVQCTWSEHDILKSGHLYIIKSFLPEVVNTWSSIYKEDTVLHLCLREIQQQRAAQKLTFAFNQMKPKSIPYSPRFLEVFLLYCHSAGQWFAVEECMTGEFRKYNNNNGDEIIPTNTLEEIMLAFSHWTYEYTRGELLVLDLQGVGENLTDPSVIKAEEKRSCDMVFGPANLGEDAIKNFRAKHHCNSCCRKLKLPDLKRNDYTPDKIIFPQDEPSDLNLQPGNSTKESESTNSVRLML

[8] = target: T1, Short transient receptor potential channel 5 (Homo sapiens); experiment: Induction of TRPC5 S-nitrosylation in chicken DT40 cells assessed as increase in Ca2+ level from extracellular space at 30 uM in presence of PLC-beta inhibitor U73122; format: cell-based
[9] = target: T1, Short transient receptor potential channel 5 (Homo sapiens); experiment: Induction of S-nitrosylation of TRPC5 in HEK cells assessed as increase in Ca2+ level from extracellular space at 30 uM in presence of ascorbic acid; format: cell-based; conditions: HEK293
[10] = target: T1, Short transient receptor potential channel 5 (Homo sapiens); experiment: Induction of S-nitrosylation of TRPC5 in HEK cells assessed as increase in Ca2+ level from extracellular space at 30 uM in presence of dithiothreitol; format: cell-based; conditions: HEK293

Row | Compound | Activity [1] | Activity [2] | Activity [3] | Activity [4] | Activity [5] | Activity [6] | Activity [7] | Activity [8] | Activity [9] | Activity [10]
1 | CC(=O)N[C@@H](C(=O)O)C(C)(C)SN=O (racemic) | inactive | Active | Active | Active | – | – | – | – | – | –
2 | O=[N+]([O-])c1ccc(SSc2ccc([N+](=O)[O-])cn2)nc1 | – | – | – | – | Active | inactive | inactive | Active | Active | inactive
